Patent publication US9856225B2, “Substituted phenazines as antimicrobial agents” (University of Florida Research Foundation, Incorporated, priority 2013, dated 2018)
Entries after “also recorded” stand apart in the source; their conditions may differ. Where two headings read alike, the source gives them in different places. Marks after values point to notes of the source that are not given here.

Columns and labels:
Assay type in all cases: cell-based
[1] = test system: Staphylococcus aureus (ATCC 25923); assay: MIC broth microdilution (CLSI), Luria Broth
Method: Antibiotic Susceptibility Tests (MIC Assay Protocol). The minimum inhibitory concentration (MIC) for each compound described herein was determined by the broth microdilution method as recommended by the Clinical and Laboratory Standards Institute (CLSI) (Clinical and Laboratory Standards Institute. 2009. Methods for dilution antimicrobial susceptibility tests for bacteria that grow aerobically; approved standard, eighth edition (M7-A8)). In a 96-well plate, eleven two-fold serial dilutions of each compound were made in a final volume of 100 μL Luria Broth (one column served as a blank; see the MIC assay described herein). Each well was inoculated with 10^5 bacterial cells at the initial time of incubation, prepared from a fresh log phase culture (OD600 of 0.5). […] The concentration range tested for each compound during this study was 0.10 to 100 μM. DMSO served as the vehicle and negative control in each microdilution MIC assay. DMSO was serially diluted at the same concentration as the compounds with a top concentration of 1% v/v. Bacterial strains used: Staphylococcus aureus (ATCC 25923), Staphylococcus epidermidis (ATCC 12228) and Pseudomonas aeruginosa (PAO1). Kanamycin was used as a positive control against Staphylococcus aureus and Staphylococcus epidermidis.

[2] = test system: Acinetobacter baumannii (ATCC 19606) biofilm; assay: Biofilm inhibition, Mueller-Hinton broth, crystal violet; settings: for inhibition at 100 µM: Acinetobacter baumannii
Method: (§1) Biofilm Inhibition Protocol for A. baumannii (ATCC 19606): In a 96-well plate, ten two-fold serial dilutions of each compound tested were made from the highest concentration tested (100 μM) in a final volume of 100 μL in Mueller-Hinton broth (one column served as a blank). Each well was inoculated with ˜7×10^6 colony forming units per milliliter (corresponding to an OD600 of 0.01 prepared directly from an overnight culture). A lid was placed on the 96-well plate which was wrapped in suran wrap, placed in a humidifying chamber and incubated under static conditions at 37° C. for 24 hours. Following incubation, the media and planktonic bacteria were then removed from 96-well plates and the wells were then washed with water. The bacterial biofilms within the microtiter wells were stained with 200 μL of an aqueous 0.1% crystal violet solution that was allowed to stand for 10-20 minutes. The crystal violet stain was then removed, the wells were rinsed with water and dried. The crystal violet stain that remained on the inside of the wells (i.e., stained bacterial biofilm) on the inside of the wells was solubilized by the addition of 200 μL ethanol and absorbance was read at OD540 using a spectrophotometer. NOTE: The concentration range tested for each compound was 0.2-100 μM. Single data points for all compounds and DMSO controls were tested in two replicate rows in 96-well plates and corresponding absorbance readings were averaged for the quantification of planktonic growth and biofilm formation. Reported percent biofilm inhibition was determined by the comparison of compound treated wells (the average of the two replicate wells) versus vehicle control wells without compound following background subtraction (i.e., an empty, untreated well) and reported from 2 to 4 independent overnight cultures. DMSO was serially diluted at the same concentration as test compounds with a top concentration of 1% v/v.
(§2) The bromophenazines were also evaluated against the Gram-negative bacterium Acinetobacter baumannii in order to identify biofilm modulating small molecules against this emerging pathogen. Acinetobacter baumannii is notorious for its ability to persist as bacterial biofilms on hospital surfaces, giving rise to many multidrug-resistant nosocomial infections. Clinical isolates of A. baumannii have been identified that are resistant to every class of antibiotic clinically used. The bromophenazines were evaluated against Acinetobacter baumannii ATCC 19606 in biofilm inhibition assays. Bromophenazines were allowed to incubate in 96-well plates with Acinetobacter baumannii (˜7×10^6 CFUmL^−1 by adjusting an overnight culture to an OD600˜0.01) for 24 hours at 37° C. using Mueller-Hinton broth followed by spectrophometer readings of each plate to evaluate planktonic growth (OD600) and biofilm formation (OD540 after crystal violet stain of biofilms inside microtiter wells). […] This biofilm inhibition with activation of planktonic growth activity was dose-dependent with bromophenazine 17a (see FIG. 20).

[3] = test system: Acinetobacter baumannii (ATCC 19606); assay: Planktonic growth (OD600) in biofilm inhibition assay; settings: for inhibition of growth at 100 µM: Acinetobacter baumannii, ATCC19606, 24 h, read-out: % Growth Inhibition at 100 μM; for increase in planktonic growth: OD600
Method: as §1, with “Each” for “Biofilm Inhibition Protocol for A. baumannii (ATCC 19606): In a 96-well plate, ten two-fold serial dilutions of each compound tested were made from the highest concentration tested (100 μM) in a final volume of 100 μL in Mueller-Hinton broth (one column served as a blank). Each”, “NOTE: The concentration range tested for each compound was 0.2-100 μM.” left out
as §2

[4] = test system: Staphylococcus aureus (ATCC 25923) biofilm; assay: Biofilm inhibition, crystal violet staining; design: MIC/IC50 Biofilm: unit not given here; settings: for Phenotype: planktonic growth vs biofilm formation; for IC50: Staphylococcus aureus; for MIC/IC50 Biofilm: ratio of MIC to IC50 of biofilm inhibition
Method: Biofilm Inhibition Protocol for S. aureus (ATCC 25923). A serial two-fold dilution of 2× bromophenazine small molecule concentration was made in 100 μL tryptic soy broth (TSB) medium with 0.5% glucose were delivered into 0.1% gelatin (Millipore) coated 96-well tissue culture plates. […] To each well, 100 μL of TSB with 0.5% glucose containing 2×10^6 CFU/mL Staphylococcus aureus cells, prepared from fresh culture (OD600 of 0.8), was added. The plates were incubated at 37° C. for 24 hours. The wells were gently rinsed by submerging the entire plates in a tub of cold, running tap water. The wells were then fixed with 200 μL methanol for 15 minutes. After the plates were air dried, the biofilms were stained with 100 μL of 1% crystal violet for 10 minutes. The plates were again rinsed with running water. After drying in air, quantitative assessment of biofilm formation was obtained by extracting the crystal violet associated with the remaining biofilm with 100 μL per well of the following bleaching solution (methanol:glacial acetic acid:water (v/v/v)=4:1:5). This bleaching solution dissolved the bound crystal violet and produced a violet-colored solution in each well. The intensity of coloration was determined by measuring the absorbance at 540 nm.

[5] = Staphylococcus aureus, ATCC25923, Table 1, ATCC 25923, range tested 0.10 to 100 μM, read-out: Staphylococcus aureus MIC
[6] = Staphylococcus aureus, ATCC25923, Table 1, ATCC 25923, read-out: Staphylococcus aureus MIC
[7] = Staphylococcus aureus, ATCC25923, Table 2, S. aureus ATCC 25923, Luria Broth, read-out: MIC
[8] = ATCC19606, A. baumannii ATCC 19606, 100 μM, read-out: % Biofilm Inhibition at 100 μM
[9] = A. baumannii ATCC 19606, 100 μM, * = no growth inhibition at 200 μM
[10] = ATCC25923, S. aureus ATCC 25923, single replicate screen, read-out: Biofilm Inhibition IC50

Row | Compound | MIC [1, 7] | inhibition at 100 µM [2, 8] | inhibition of growth at 100 µM [3, 9] | Phenotype ([4]; S. aureus ATCC 25923) | IC50 [4, 10] | MIC/IC50 Biofilm ([4]; S. aureus ATCC 25923) | other results
1 | O=C(Oc1c(Br)cc(Br)c2nc3ccccc3nc12)c1ccc(F)cc1 [Compound 24, 2,4-Dibromophenazin-1-yl 4-fluorobenzoate] | 1.56 µM | 35 ± 4% | -16 ± 6% | antibacterial | 2.44 µM | 0.6 | MIC [1, 5]: 1.56 µM; MIC [1, 6]: 0.74 µg/mL
2 | CN(C)C(=O)Oc1c(Br)cc(Br)c2nc3ccccc3nc12 [Compound 25a] |  |  |  |  |  |  | MIC ([1]; Staphylococcus aureus, ATCC25923): > 100 µM; inhibition at 100 µM ([2]; ATCC19606, read-out: % Biofilm Inhibition at 100 μM): 15 ± 1%; inhibition of growth at 100 µM [3]: -3 ± 1%; IC50 ([4]; ATCC25923, read-out: Biofilm Inhibition IC50): > 100 µM
3 | O=C(Oc1c(Br)cc(Br)c2nc3ccccc3nc12)c1cc(C(F)(F)F)cc(C(F)(F)F)c1 [Compound 17a] |  | 60 ± 8% | -15 ± 3% | antibacterial | 1.1 µM | 11.4 | increase in planktonic growth ([3]; 100 μM): ~15%; planktonic growth inhibition at 200 μM [3]: did not inhibit planktonic growth; planktonic growth while biofilm formation is inhibited (in words) ([3]; Mueller-Hinton broth, FIG. 20): dose-dependent increases in planktonic growth
4 | O=C(Oc1c(Br)cc(Br)c2nc3ccccc3nc12)C1CCCCC1 [Compound 26, 2,4-Dibromophenazin-1-yl cyclohexanecarboxylate] | > 100 µM | 11 ± 1% | -25 ± 5% | inactive | > 100 µM |  | MIC [1, 5]: > 100 µM; MIC [1, 6]: > 46.5 µg/mL; Phenotype ([2]; A. baumannii ATCC 19606): inactive
5 | O=C(Oc1c(Br)cc(Br)c2nc3ccccc3nc12)c1cccs1 [Compound 24a] | > 100 µM | 32 ± 8% | -10 ± 7% | antibacterial; also recorded: antibacterial** | 0.79 µM | >127** | MIC ([1]; Table 2, S. aureus ATCC 25923, Luria Broth): >100** μM
6 | CS(=O)(=O)Oc1c(Br)cc(Br)c2nc3ccccc3nc12 [Compound 29a] | > 100 µM | 1 ± 2% | 3 ± 3% |  | > 100 µM |  | Phenotype ([2]; A. baumannii ATCC 19606): inactive
7 | O=C(Oc1c(Br)cc(Br)c2nc3ccccc3nc12)N(c1ccccc1)c1ccccc1 [Compound 26a] | > 100 µM | 40 ± 2% | -22 ± 8% | inactive | > 100 µM |  | 
8 | O=C(/C=C/c1ccccc1)Oc1c(Br)cc(Br)c2nc3ccccc3nc12 [Compound 9a] | > 100 µM | 52 ± 5% | -18 ± 4% |  | 14.8 µM | >6.8 | increase in planktonic growth ([3]; 100 μM): ~15%; planktonic growth inhibition at 200 μM [3]: did not inhibit planktonic growth
9 | O=C(Oc1c(Br)cc(Br)c2nc3ccccc3nc12)c1ccc(C(F)(F)F)cc1 [Compound 16a] |  | 29 ± 11% | -3 ± 2% | antibacterial | 1.3 µM | 9.6 | 
10 | Cc1cc(C)c(C(=O)Oc2c(Br)cc(Br)c3nc4ccccc4nc23)c(C)c1 [Compound 19a] | > 100 µM | 44 ± 10% | -14 ± 2% | inactive | > 100 µM |  | increase in planktonic growth ([3]; 100 μM): ~15%; planktonic growth inhibition at 200 μM [3]: did not inhibit planktonic growth
11 | COc1ccc(C(=O)Oc2c(Br)cc(Br)c3nc4ccccc4nc23)cc1 [Compound 20a] | > 100 µM | 17 ± 5% | -6 ± 4% |  | 0.95 µM | >105 | Phenotype ([2]; A. baumannii ATCC 19606): inactive; IC50 ([4]; ATCC25923, S. aureus, three independent experiments, read-out: Biofilm inhibition IC50 (triplicate)): 10.3 µM
12 | O=C(Oc1c(Br)cc(Br)c2nc3ccccc3nc12)c1ccc2c(c1)OCO2 [Compound 22a] | > 100 µM | 29 ± 4% | -14 ± 5% |  | > 100 µM |  | 
